Test results as given in patent US6635634B2, “Propanolamine derivatives” (Fujisawa Pharmaceutical Co., Ltd., priority 1998, dated 2003).
Each block holds one molecule with its values, some of them ahead of it.

Key:
anesthetized dog = assay: Effect on the increase in intravesical pressure induced by carbachol in anesthetized dog (Test 1); type: in vivo; settings: for Increase in intravesical pressure (mmHg): 0.01 mg/kg intravenously 5 minutes before carbachol (1.8 μg/kg); for effect on the increase in intravesical pressure induced by carbachol (in words): anesthetized dog, 0.01 mg/kg intravenously
Protocol: Effect on the increase in intravesical pressure induced by carbachol in anesthetized dog
Female Beagle dogs weighing 8.0-15.0 kg were fasted for 24 hours and maintained under halothane anesthesia. A 12F Foley catheter was lubricated with water soluble jelly, inserted into the urethral orifice and advanced approximately 10 cm until the balloon tip was placed well inside the bladder. The balloon was then inflated with 5 ml of room air and catheter slowly withdrawn just part the first resistance that is felt at the bladder neck. Urine was completely drained out throught the catheter, and 30 ml of biological saline was infused. The catheter was connected to pressure transducer, and intravesical pressure was continuously recorded. The test compound was injected intravenously at 5 minutes before the administration of carbachol (1.8 μg/kg).
According to a similar manner to that of Test 1 described before, the effects of the present compounds on the intravesical pressure were evaluated.

anesthetized rat [1] = assay: Effect on cystometrogram in anesthetized rat (Test 2); type: in vivo; settings: for bladder capacity (relative % of before value): 0.01 mg/kg intravenously, N = 5
From the text: Effect on Cystometrogram in Anesthetized Rat Male S.D. rats, aged 7-9 weeks, were anesthetized with urethane (1.2 g/kg, sc) and supine on a board. After a midline incision in the abdomen, the bladder was exposed. Polyethylene catheters, which were used to measure the intravesical pressure and to infuse saline, were inserted into the bladder through a small incision at the apex of the bladder dome. The bladder catheters were connected to an infusion pump and pressure transducer respectively. Saline was infused a rate of 5.0 ml/hr for 1 hour. Cystometrography was performed at 15 minutes intervals for 1 hour. The bladder capacity (volume) was calculated from the time required to fill the bladder. The test compound was administered intravenously via femoral vein.

anesthetized rat [2] = assay: Effect on rhythmic contraction of bladder in anesthetized rat (Test 3); type: in vivo; settings: dose of 0.1 mg/kg intravenously
From the text: Effect on Rhythmic Contraction of Bladder in Anesthetized Rat
Male S.D. rats, aged 7-8 weeks, were anesthetized with urethane (1.2 g/kg, ip) and supine on a board. After a midline incision in the abdomen, the bladder was exposed. Balloon catheter, which was used to measure the intravesical pressure, was inserted into the bladder through a small incision at the apex of the bladder dome. The balloon was then inflated with distilled water and the balloon port of the catheter was connected to pressure transducer. Rhythmic contraction of bladder induced by increase intravesical pressure to 10 mmHg. The test compound was administered intravenously via femoral vein.

melting point: 94 to 99 °C (dec.)
Molecule: Cl.Oc1cc2c(cc1Cl)CC(N(Cc1ccccc1)C[C@H](O)COc1ccccc1)CCC2 (stereo partly drawn)

melting point: 53.5 °C (dec.)
Molecule: Cl.Oc1ccc2c(c1)CCCC(NC[C@H](O)COc1ccccc1)C2 (stereo partly drawn)

melting point: 73 to 84 °C (dec.)
Molecule: Cl.Oc1cccc2c1CCCC(NC[C@H](O)COc1ccccc1)C2 (stereo partly drawn)

melting point: 100.5 °C (dec.)
Molecule: Cl.O=c1[nH]c2cccc(OCC(O)CNC3CCCc4cc(O)ccc4C3)c2[nH]1 (stereo not drawn)

melting point: 111 to 133 °C (dec.)
Molecule: O=c1[nH]c2cccc(OCC(O)CN(Cc3ccccc3)C3CCCc4cc(O)ccc4C3)c2[nH]1 (stereo not drawn) [Example 11, 1-[N-benzyl-N-(6,7,8,9-tetrahydro-2-hydroxy-5H-benzocyclohepten-6-yl)amino]-3-(1,3-dihydro-2-benzoimidazolon-4-yloxy)-2-propanol]

Molecule: COc1ccc(C(Cc2ccccc2)NC[C@H](O)c2ccc(O)c(NS(C)(=O)=O)c2)cc1OC (stereo partly drawn) [Test Compound (1), N-[5-[2-[l-(3,4-Dimethoxyphenyl)-2-phenylethylamino]-1(R)-hydroxyethyl]-2-hydroxyphenyl]methanesulfonamide]
Increase in intravesical pressure (mmHg) (anesthetized dog; Control 5.0 ± 0.9, N = 3, P<0.01 vs Control): 1.8 ± 0.3 mmHg
effect on the increase in intravesical pressure induced by carbachol (in words) (anesthetized dog): inhibited the increase in intravesical pressure induced by carbachol

Molecule: O=c1n(CCCC2CCCC2)nnn1-c1ccc(S(=O)(=O)Nc2ccc(CCNC[C@H](O)c3cccnc3)cc2)cc1 [Test Compound (2), N-[4-[2-[2(R)-Hydroxy-2-(pyridin-3-yl)ethylamino]ethyl]-phenyl]-4-[4-(3-cyclopentylpropyl)-5-tetrazolon-1-yl]-benzenesulfonamide]
Increase in intravesical pressure (mmHg) (anesthetized dog; Control 5.0 ± 1.2, N = 4, P<0.05 vs Control): 2.3 ± 1.5 mmHg
effect on the increase in intravesical pressure induced by carbachol (in words) (anesthetized dog): inhibited the increase in intravesical pressure induced by carbachol

Molecule: CS(=O)(=O)Nc1cc(C(O)CNCCOc2ccc3c(c2)[nH]c2ccccc23)ccc1O.Cl (stereo not drawn) [Test Compound (3), N-[5-[2-[2-(9H-Carbazol-2-yloxy)ethylamino]-1-hydroxyethyl]-2-hydroxyphenyl]methanesulfonamide hydrochloride]
Increase in intravesical pressure (mmHg) (anesthetized dog; Control 5.0 ± 0.5, N = 3, P<0.01 vs Control): 1.7 ± 0.6 mmHg
effect on the increase in intravesical pressure induced by carbachol (in words) (anesthetized dog): inhibited the increase in intravesical pressure induced by carbachol

Molecule: CCOC(=O)COc1ccc2c(c1)C[C@@H](NC[C@H](O)c1cccc(Cl)c1)CC2.Cl [compound (4), 2(S)-[ (7-Ethoxycarbonylmethoxy-1,2,3,4-tetrahydro-naphthalen-2-yl)amino]-1(R)-(3-chlorophenyl)ethanol hydrochloride]
bladder capacity (relative % of before value) (anesthetized rat [1]; time 0-15 minutes, vehicle 128): 152%
bladder capacity (relative % of before value) (anesthetized rat [1]; time 15-30 minutes, vehicle 111): 146%
bladder capacity (relative % of before value) (anesthetized rat [1]; time 30-45 minutes, vehicle 114): 143%
bladder capacity (relative % of before value) (anesthetized rat [1]; time 45-60 minutes, vehicle 104): 151%
effect on bladder capacity (in words) (anesthetized rat [1]; dose of 0.01 mg/kg intravenously): increased in bladder capacity

Molecule: COC(=O)COc1ccc(C[C@@H](C)NC[C@H](O)c2cccc(Cl)c2)cc1 [compound (5), Methyl 4-[2(R)-[2-(3-chlorophenyl)-2(R)-hydroxyethyl-amino]propyl]phenoxyacetate]
effect on contractile force of bladder (in words) (anesthetized rat [2]): decreased in contractile force of bladder

Molecule: N-butyl-2-[8-[[(2S)-2-hydroxy-3-[4-hydroxy-3-methanesulfonylamino]phenoxypropyl]amino]-6,7,8,9-tetrahydro-5H-benzocyclohepten-2-yloxy]acetamide hydrochloride [Example 155]
ED50 (effect on the intravesical pressure) (anesthetized dog; similar manner to Test 1, anesthetized dog): 0.0108 mg/kg
